Paper PMC5443783, “Prostaglandin E2 glyceryl ester is an endogenous agonist of the nucleotide receptor P2Y6” (Scientific Reports, 2017)

Tests used:
Experiment in all cases: PathHunter β-Arrestin orphan GPCR panel
Format in all cases: cell-based
Conditions in all cases: agonist mode, 0.001 µM
[1] = target: T1, ADMR (Homo sapiens, UniProt O15218)
T1 construct: purchased DiscoveRx (PathHunter β-Arrestin orphan GPCR panel)
Description: (§1) For screening orphan GPCRs as possible targets for PGE2-G, the PathHunter® β-Arrestin assay (DiscoveRx Co., USA) was used. It monitors the activation of a GPCR by utilizing an enzyme fragment complementation assay with β-galactosidase as the functional reporter. Briefly, the enzyme is split into two complementary portions expressed as fusion proteins in the cell. The enzyme acceptor is fused to β2-arrestin, and the ProLink donor peptide is fused to the GPCR of interest. Upon GPCR stimulation, β2-arrestin is recruited to the receptor, bringing the two fragments of β-galactosidase together. This generates an active enzyme that can convert a chemiluminescent substrate, generating a signal detectable on a standard microplate reader (see manufacturer’s instructions). In total, 78 GPCRs, previously considered orphan and individually transfected into cells, were screened by DiscoveRx (Supplementary Table S1). The percentage activity given in the results is calculated using the following formula: % activity = 100% × (mean RLU of test sample - mean RLU of vehicle control)/mean RLU of vehicle control).

[2] = target: T2, BAI1 (Homo sapiens, UniProt O14514)
T2 construct: purchased DiscoveRx (PathHunter β-Arrestin orphan GPCR panel)
Description: as §1

[3] = target: T3, BAI2 (Homo sapiens, UniProt O60241)
T3 construct: purchased DiscoveRx (PathHunter β-Arrestin orphan GPCR panel)
Description: as §1

[4] = target: T4, BAI3 (Homo sapiens, UniProt O60242)
T4 construct: purchased DiscoveRx (PathHunter β-Arrestin orphan GPCR panel)
Description: as §1

[5] = target: T5, CCRL2 (Homo sapiens, UniProt O00421)
T5 construct: purchased DiscoveRx (PathHunter β-Arrestin orphan GPCR panel)
Description: as §1

[6] = target: T6, CMKLR2 (Homo sapiens, UniProt P46091)
T6 construct: purchased DiscoveRx (PathHunter β-Arrestin orphan GPCR panel)
Description: as §1

[7] = target: T7, DARC (Homo sapiens, UniProt Q16570)
T7 construct: purchased DiscoveRx (PathHunter β-Arrestin orphan GPCR panel)
Description: as §1

[8] = target: T8, EBI2 (Homo sapiens, UniProt P32249)
T8 construct: purchased DiscoveRx (PathHunter β-Arrestin orphan GPCR panel)
Description: as §1

[9] = target: T9, GHSR1B (Homo sapiens, UniProt Q92847)
T9 construct: purchased DiscoveRx (PathHunter β-Arrestin orphan GPCR panel)
Description: as §1

[10] = target: T10, GPR101 (Homo sapiens, UniProt Q96P66)
T10 construct: purchased DiscoveRx (PathHunter β-Arrestin orphan GPCR panel)
Description: as §1

[11] = target: T11, GPR103 (Homo sapiens, UniProt Q96P65)
T11 construct: purchased DiscoveRx (PathHunter β-Arrestin orphan GPCR panel)
Description: as §1

[12] = target: T12, GPR107 (Homo sapiens, UniProt Q5VW38)
T12 construct: purchased DiscoveRx (PathHunter β-Arrestin orphan GPCR panel)
Description: as §1

[13] = target: T13, GPR12 (Homo sapiens, UniProt P47775)
T13 construct: purchased DiscoveRx (PathHunter β-Arrestin orphan GPCR panel)
Description: as §1

[14] = target: T14, GPR123 (Homo sapiens, UniProt Q86SQ6)
T14 construct: purchased DiscoveRx (PathHunter β-Arrestin orphan GPCR panel)
Description: as §1

[15] = target: T15, GPR132 (Homo sapiens, UniProt Q9UNW8)
T15 construct: purchased DiscoveRx (PathHunter β-Arrestin orphan GPCR panel)
Description: as §1

[16] = target: T16, GPR135 (Homo sapiens, UniProt Q8IZ08)
T16 construct: purchased DiscoveRx (PathHunter β-Arrestin orphan GPCR panel)
Description: as §1

[17] = target: T17, GPR139 (Homo sapiens, UniProt Q6DWJ6)
T17 construct: purchased DiscoveRx (PathHunter β-Arrestin orphan GPCR panel)
Description: as §1

[18] = target: T18, GPR141 (Homo sapiens, UniProt Q7Z602)
T18 construct: purchased DiscoveRx (PathHunter β-Arrestin orphan GPCR panel)
Description: as §1

[19] = target: T19, GPR142 (Homo sapiens, UniProt Q7Z601)
T19 construct: purchased DiscoveRx (PathHunter β-Arrestin orphan GPCR panel)
Description: as §1

[20] = target: T20, GPR143 (Homo sapiens, UniProt P51810)
T20 construct: purchased DiscoveRx (PathHunter β-Arrestin orphan GPCR panel)
Description: as §1

[21] = target: T21, GPR146 (Homo sapiens, UniProt Q96CH1)
T21 construct: purchased DiscoveRx (PathHunter β-Arrestin orphan GPCR panel)
Description: as §1

[22] = target: T22, GPR148 (Homo sapiens, UniProt Q8TDV2)
T22 construct: purchased DiscoveRx (PathHunter β-Arrestin orphan GPCR panel)
Description: as §1

[23] = target: T23, GPR149 (Homo sapiens, UniProt Q86SP6)
T23 construct: purchased DiscoveRx (PathHunter β-Arrestin orphan GPCR panel)
Description: as §1

[24] = target: T24, GPR15 (Homo sapiens, UniProt P49685)
T24 construct: purchased DiscoveRx (PathHunter β-Arrestin orphan GPCR panel)
Description: as §1

[25] = target: T25, GPR150 (Homo sapiens, UniProt Q8NGU9)
T25 construct: purchased DiscoveRx (PathHunter β-Arrestin orphan GPCR panel)
Description: as §1

[26] = target: T26, GPR151 (Homo sapiens, UniProt Q8TDV0)
T26 construct: purchased DiscoveRx (PathHunter β-Arrestin orphan GPCR panel)
Description: as §1

[27] = target: T27, GPR152 (Homo sapiens, UniProt Q8TDT2)
T27 construct: purchased DiscoveRx (PathHunter β-Arrestin orphan GPCR panel)
Description: as §1

[28] = target: T28, GPR157 (Homo sapiens, UniProt Q5UAW9)
T28 construct: purchased DiscoveRx (PathHunter β-Arrestin orphan GPCR panel)
Description: as §1

[29] = target: T29, GPR161 (Homo sapiens, UniProt Q8N6U8)
T29 construct: purchased DiscoveRx (PathHunter β-Arrestin orphan GPCR panel)
Description: as §1

[30] = target: T30, GPR162 (Homo sapiens, UniProt Q16538)
T30 construct: purchased DiscoveRx (PathHunter β-Arrestin orphan GPCR panel)
Description: as §1

[31] = target: T31, GPR17 (Homo sapiens, UniProt Q13304)
T31 construct: purchased DiscoveRx (PathHunter β-Arrestin orphan GPCR panel)
Description: as §1

[32] = target: T32, GPR171 (Homo sapiens, UniProt O14626)
T32 construct: purchased DiscoveRx (PathHunter β-Arrestin orphan GPCR panel)
Description: as §1

[33] = target: T33, GPR173 (Homo sapiens, UniProt Q9NS66)
T33 construct: purchased DiscoveRx (PathHunter β-Arrestin orphan GPCR panel)
Description: as §1

[34] = target: T34, GPR176 (Homo sapiens, UniProt Q14439)
T34 construct: purchased DiscoveRx (PathHunter β-Arrestin orphan GPCR panel)
Description: as §1

[35] = target: T35, GPR18 (Homo sapiens, UniProt Q14330)
T35 construct: purchased DiscoveRx (PathHunter β-Arrestin orphan GPCR panel)
Description: as §1

[36] = target: T36, GPR182 (Homo sapiens, UniProt O15218)
T36 construct: purchased DiscoveRx (PathHunter β-Arrestin orphan GPCR panel)
Description: as §1

[37] = target: T37, GPR20 (Homo sapiens, UniProt Q99678)
T37 construct: purchased DiscoveRx (PathHunter β-Arrestin orphan GPCR panel)
Description: as §1

[38] = target: T38, GPR23 (Homo sapiens, UniProt Q99677)
T38 construct: purchased DiscoveRx (PathHunter β-Arrestin orphan GPCR panel)
Description: as §1

[39] = target: T39, GPR25 (Homo sapiens, UniProt O00155)
T39 construct: purchased DiscoveRx (PathHunter β-Arrestin orphan GPCR panel)
Description: as §1

[40] = target: T40, GPR26 (Homo sapiens, UniProt Q8NDV2)
T40 construct: purchased DiscoveRx (PathHunter β-Arrestin orphan GPCR panel)
Description: as §1

[41] = target: T41, GPR27 (Homo sapiens, UniProt Q9NS67)
T41 construct: purchased DiscoveRx (PathHunter β-Arrestin orphan GPCR panel)
Description: as §1

[42] = target: T42, GPR3 (Homo sapiens, UniProt P46089)
T42 construct: purchased DiscoveRx (PathHunter β-Arrestin orphan GPCR panel)
Description: as §1

[43] = target: T43, GPR30 (Homo sapiens, UniProt Q99527)
T43 construct: purchased DiscoveRx (PathHunter β-Arrestin orphan GPCR panel)
Description: as §1

[44] = target: T44, GPR31 (Homo sapiens, UniProt O00270)
T44 construct: purchased DiscoveRx (PathHunter β-Arrestin orphan GPCR panel)
Description: as §1

[45] = target: T45, GPR32 (Homo sapiens, UniProt O75388)
T45 construct: purchased DiscoveRx (PathHunter β-Arrestin orphan GPCR panel)
Description: as §1

[46] = target: T46, GPR37 (Homo sapiens, UniProt O15354)
T46 construct: purchased DiscoveRx (PathHunter β-Arrestin orphan GPCR panel)
Description: as §1

[47] = target: T47, GPR37L1 (Homo sapiens, UniProt O60883)
T47 construct: purchased DiscoveRx (PathHunter β-Arrestin orphan GPCR panel)
Description: as §1

T26 sequence (Q8TDV0 whole entry): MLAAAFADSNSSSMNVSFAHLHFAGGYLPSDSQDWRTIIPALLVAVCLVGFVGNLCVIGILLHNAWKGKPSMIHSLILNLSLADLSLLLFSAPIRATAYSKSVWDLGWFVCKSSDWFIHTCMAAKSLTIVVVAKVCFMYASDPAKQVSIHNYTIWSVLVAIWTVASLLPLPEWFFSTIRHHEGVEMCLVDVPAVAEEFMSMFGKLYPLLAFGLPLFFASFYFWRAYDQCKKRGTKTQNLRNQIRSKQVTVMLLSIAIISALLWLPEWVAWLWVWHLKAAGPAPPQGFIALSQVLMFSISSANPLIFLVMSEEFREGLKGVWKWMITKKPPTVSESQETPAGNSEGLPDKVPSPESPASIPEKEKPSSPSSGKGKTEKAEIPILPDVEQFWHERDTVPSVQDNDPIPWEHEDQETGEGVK
T11 sequence (Q96P65 whole entry): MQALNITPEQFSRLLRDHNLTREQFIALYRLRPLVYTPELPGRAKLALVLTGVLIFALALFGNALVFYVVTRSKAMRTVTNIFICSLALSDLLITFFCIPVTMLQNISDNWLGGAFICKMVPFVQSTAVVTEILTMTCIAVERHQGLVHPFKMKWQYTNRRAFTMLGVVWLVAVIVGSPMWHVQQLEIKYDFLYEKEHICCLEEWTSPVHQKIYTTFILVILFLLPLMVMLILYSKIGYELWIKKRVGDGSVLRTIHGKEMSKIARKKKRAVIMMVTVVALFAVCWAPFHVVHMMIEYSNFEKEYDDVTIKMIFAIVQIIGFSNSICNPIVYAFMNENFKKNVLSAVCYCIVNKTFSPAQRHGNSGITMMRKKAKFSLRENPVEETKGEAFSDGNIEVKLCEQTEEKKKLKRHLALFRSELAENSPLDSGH
T17 sequence (Q6DWJ6 whole entry): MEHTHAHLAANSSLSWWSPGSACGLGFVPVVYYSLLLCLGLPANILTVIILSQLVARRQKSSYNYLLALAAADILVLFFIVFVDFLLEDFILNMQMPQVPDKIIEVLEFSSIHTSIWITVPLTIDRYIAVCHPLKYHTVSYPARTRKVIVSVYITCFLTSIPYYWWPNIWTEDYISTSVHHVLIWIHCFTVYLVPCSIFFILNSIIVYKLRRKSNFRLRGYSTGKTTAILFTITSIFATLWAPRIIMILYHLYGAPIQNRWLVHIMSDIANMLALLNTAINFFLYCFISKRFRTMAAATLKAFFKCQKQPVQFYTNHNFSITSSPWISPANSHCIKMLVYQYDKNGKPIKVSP
T29 sequence (Q8N6U8 whole entry): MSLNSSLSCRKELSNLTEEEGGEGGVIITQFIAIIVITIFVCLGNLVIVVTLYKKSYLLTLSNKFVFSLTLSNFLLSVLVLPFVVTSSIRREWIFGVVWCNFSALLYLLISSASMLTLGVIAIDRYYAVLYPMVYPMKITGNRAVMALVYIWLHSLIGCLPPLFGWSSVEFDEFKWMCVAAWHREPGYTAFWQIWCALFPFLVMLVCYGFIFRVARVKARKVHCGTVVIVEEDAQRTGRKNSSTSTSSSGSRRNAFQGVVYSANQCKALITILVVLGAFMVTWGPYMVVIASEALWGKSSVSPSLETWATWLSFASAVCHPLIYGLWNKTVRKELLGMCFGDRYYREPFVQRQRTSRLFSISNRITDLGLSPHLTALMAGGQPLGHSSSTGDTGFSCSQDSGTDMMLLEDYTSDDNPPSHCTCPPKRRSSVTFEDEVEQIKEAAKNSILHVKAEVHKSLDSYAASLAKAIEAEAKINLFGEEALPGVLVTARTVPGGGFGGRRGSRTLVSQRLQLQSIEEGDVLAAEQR
T21 sequence (Q96CH1 whole entry): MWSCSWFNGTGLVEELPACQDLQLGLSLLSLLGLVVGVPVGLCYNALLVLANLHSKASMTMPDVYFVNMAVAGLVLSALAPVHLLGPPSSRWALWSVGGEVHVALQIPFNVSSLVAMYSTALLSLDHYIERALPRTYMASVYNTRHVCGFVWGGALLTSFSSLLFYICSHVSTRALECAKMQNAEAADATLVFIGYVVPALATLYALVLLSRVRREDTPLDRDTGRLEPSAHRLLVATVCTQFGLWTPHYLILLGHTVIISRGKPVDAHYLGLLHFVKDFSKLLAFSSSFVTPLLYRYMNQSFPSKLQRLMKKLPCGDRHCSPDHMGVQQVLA
T37 sequence (Q99678 whole entry): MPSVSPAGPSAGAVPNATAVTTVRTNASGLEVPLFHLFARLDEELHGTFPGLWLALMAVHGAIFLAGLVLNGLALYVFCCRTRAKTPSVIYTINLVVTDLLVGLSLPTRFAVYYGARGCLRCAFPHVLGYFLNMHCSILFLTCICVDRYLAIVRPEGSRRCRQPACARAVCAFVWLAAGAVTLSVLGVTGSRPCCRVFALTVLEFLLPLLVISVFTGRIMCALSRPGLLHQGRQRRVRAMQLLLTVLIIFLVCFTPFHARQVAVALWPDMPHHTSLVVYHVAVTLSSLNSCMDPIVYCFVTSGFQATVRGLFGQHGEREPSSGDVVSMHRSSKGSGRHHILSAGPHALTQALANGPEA
T19 sequence (Q7Z601 whole entry): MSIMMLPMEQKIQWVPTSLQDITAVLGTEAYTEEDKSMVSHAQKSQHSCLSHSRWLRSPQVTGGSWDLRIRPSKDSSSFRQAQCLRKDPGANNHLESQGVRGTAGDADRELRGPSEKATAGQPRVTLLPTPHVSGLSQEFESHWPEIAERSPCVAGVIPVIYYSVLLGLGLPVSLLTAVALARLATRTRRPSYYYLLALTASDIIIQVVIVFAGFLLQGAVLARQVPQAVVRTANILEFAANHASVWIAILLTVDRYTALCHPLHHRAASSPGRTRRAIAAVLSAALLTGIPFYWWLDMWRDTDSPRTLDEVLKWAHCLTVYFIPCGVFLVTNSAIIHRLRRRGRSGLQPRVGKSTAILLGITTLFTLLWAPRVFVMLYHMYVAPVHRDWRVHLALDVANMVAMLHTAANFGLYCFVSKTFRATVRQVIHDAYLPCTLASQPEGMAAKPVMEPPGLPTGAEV
T32 sequence (O14626 whole entry): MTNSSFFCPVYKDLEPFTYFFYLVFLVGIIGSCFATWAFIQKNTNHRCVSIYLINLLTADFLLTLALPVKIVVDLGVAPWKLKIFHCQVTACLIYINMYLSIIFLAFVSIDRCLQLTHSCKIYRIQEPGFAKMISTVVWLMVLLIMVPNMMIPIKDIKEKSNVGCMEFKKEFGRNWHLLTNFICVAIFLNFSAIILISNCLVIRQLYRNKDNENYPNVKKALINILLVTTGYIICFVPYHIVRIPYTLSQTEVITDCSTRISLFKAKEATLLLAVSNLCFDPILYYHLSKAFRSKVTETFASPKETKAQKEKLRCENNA
T4 sequence (O60242 25-1522): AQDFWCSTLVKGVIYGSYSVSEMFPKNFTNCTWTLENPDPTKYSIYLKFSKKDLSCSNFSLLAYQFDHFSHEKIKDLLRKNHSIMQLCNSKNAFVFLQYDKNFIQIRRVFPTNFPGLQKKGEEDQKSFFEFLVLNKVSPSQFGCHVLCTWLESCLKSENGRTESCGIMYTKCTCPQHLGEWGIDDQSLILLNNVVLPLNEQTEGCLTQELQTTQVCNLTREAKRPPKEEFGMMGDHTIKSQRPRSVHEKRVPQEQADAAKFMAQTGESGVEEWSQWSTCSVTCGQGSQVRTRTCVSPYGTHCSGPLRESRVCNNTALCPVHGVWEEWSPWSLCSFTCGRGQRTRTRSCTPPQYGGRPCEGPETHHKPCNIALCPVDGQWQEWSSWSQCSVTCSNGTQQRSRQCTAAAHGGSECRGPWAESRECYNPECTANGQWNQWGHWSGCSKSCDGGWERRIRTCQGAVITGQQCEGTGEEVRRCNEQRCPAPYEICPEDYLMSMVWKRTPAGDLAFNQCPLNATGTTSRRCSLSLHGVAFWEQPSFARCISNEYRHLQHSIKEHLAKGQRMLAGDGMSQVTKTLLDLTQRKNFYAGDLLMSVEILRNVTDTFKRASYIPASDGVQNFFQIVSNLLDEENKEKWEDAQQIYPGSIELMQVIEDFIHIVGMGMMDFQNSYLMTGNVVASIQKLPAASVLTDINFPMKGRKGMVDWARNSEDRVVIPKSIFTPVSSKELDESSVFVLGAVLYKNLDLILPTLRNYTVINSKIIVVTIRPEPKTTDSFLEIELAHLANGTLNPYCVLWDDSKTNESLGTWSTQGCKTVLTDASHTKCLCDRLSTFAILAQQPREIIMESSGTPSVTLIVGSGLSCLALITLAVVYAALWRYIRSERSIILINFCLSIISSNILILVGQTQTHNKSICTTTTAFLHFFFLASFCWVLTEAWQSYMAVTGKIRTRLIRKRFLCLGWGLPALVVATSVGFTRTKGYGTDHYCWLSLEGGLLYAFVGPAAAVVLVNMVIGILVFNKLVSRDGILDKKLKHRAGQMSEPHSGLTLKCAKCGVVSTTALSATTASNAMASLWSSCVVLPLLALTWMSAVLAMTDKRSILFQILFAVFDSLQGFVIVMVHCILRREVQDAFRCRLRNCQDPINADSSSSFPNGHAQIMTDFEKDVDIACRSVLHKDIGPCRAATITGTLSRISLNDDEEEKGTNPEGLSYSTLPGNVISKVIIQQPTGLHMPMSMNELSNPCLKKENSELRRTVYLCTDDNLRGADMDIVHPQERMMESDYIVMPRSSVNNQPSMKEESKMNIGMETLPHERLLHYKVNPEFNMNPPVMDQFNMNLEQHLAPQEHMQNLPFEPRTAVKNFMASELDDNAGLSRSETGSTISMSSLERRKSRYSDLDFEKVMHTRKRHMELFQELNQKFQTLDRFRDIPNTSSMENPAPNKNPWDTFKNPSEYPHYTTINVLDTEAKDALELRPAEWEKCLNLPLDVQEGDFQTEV
T9 sequence (Q92847 1-289 isoform Q92847-2): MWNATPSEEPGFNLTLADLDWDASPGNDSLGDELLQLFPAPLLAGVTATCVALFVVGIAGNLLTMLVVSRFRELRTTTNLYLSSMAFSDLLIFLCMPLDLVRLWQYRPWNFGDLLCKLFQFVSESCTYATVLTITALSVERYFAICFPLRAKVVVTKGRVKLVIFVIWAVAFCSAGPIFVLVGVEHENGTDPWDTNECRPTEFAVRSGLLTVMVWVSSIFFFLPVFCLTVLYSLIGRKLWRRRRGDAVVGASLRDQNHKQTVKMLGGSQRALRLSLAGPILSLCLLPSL

CCCCC[C@H](O)/C=C/[C@H]1[C@H](O)CC(=O)[C@@H]1C/C=C\CCCC(=O)NC(CO)CO [PGE2-SA]
Mean RLU [1]: 514420 RLU | Mean RLU [2]: 864280 RLU | Mean RLU [3]: 15400 RLU | Mean RLU [4]: 21960 RLU | Mean RLU [5]: 8400 RLU | Mean RLU [6]: 17240 RLU | Mean RLU [7]: 105120 RLU | Mean RLU [8]: 46540 RLU | Mean RLU [9]: 2580 RLU | Mean RLU [10]: 30940 RLU | Mean RLU [11]: 56020 RLU | Mean RLU [12]: 304860 RLU | Mean RLU [13]: 680 RLU | Mean RLU [14]: 1221720 RLU | Mean RLU [15]: 620480 RLU | Mean RLU [16]: 16680 RLU | Mean RLU [17]: 307380 RLU | Mean RLU [18]: 30420 RLU | Mean RLU [19]: 2660 RLU | Mean RLU [20]: 91680 RLU | Mean RLU [21]: 15800 RLU | Mean RLU [22]: 3640 RLU | Mean RLU [23]: 29340 RLU | Mean RLU [24]: 9440 RLU | Mean RLU [25]: 31360 RLU | Mean RLU [26]: 57420 RLU | Mean RLU [27]: 178980 RLU | Mean RLU [28]: 356620 RLU | Mean RLU [29]: 20300 RLU | Mean RLU [30]: 26360 RLU | Mean RLU [31]: 805440 RLU | Mean RLU [32]: 4880 RLU | Mean RLU [33]: 62220 RLU | Mean RLU [34]: 380580 RLU | Mean RLU [35]: 520 RLU | Mean RLU [36]: 899260 RLU | Mean RLU [37]: 74500 RLU | Mean RLU [38]: 990600 RLU | Mean RLU [39]: 6140 RLU | Mean RLU [40]: 2200 RLU | Mean RLU [41]: 219760 RLU | Mean RLU [42]: 1524920 RLU | Mean RLU [43]: 8540 RLU | Mean RLU [44]: 7680 RLU | Mean RLU [45]: 129240 RLU | Mean RLU [46]: 822100 RLU | Mean RLU [47]: 36440 RLU
